# Experimental data published in patent publication US9045403B2 (Coyote Pharmaceuticals, Inc., priority 2012, dated 2015).
# Tests used:
# [1] = tested on: Mouse Neuro2A neuroblastoma cells; assay: Neuro2A cells with neurites after GGTI-298 (Example 16); type: cell-based; conditions: 10 μM, 48 hrs
# Description: Mouse Neuro2A neuroblastoma cells were cultured in DMEM supplemented with 10% FBS for 24 hrs. […] Then differentiation was induced by retinoic acid in DMEM supplemented with 2% FBS. The cell culture was incubated with a Geranylgeranyl Transferase inhibitor, GGTI-298. […]
# Rap1 = assay: Prenylation of Rap1 in Neuro2A cells with GGTI-298 (western blot); type: cell-based, mouse; conditions: 100 nM; percentage of control treatments (GGTI only)
# Description: Mouse neuroblastoma Neuro2A cells were cultured in DMEM supplemented with 10% FBS for 24 hrs. The cells were treated with 102GGA derivative compounds for 24 hrs first before GGTase inhibitor GGTI-298 was added to the culture medium for additional 24 hr incubation. […] Both un-prenylated and total Rap1 protein bands were quantified using Image J and normalized to their respective loading control GAPDH. The results for control and each compound treatment were calculated as the ratio of normalized un-prenylated Rap1 to total Rap1, and averaged from two biological repeats of one experiment. The final results were presented as a percentage of the control treatments (GGTI only) from the same batch experiment. The data shown in the chart were averaged from two repeats of one experiment and presented as the ratio of normalized un-prenylated Rap1 to total Rap1. Compound ID numbers in table refer to structures in Table 1 and Table 2.
# [2] = tested on: Sprague-Dawley rats injected with Kainic acid; assay: Kainic acid induced neurodegeneration and seizure in rats (Example 21); type: in vivo, rat; conditions: oral
# Description: Seizure behaviors were observed and scored (Ref. R. J. Racine, Modification of seizure activity by electrical stimulation: II. Motor seizure, Electroencephalogr. Clin. Neurophysiol. 32 (1972) 281-294. Modifications were made for the methods). Brain tissues of rats were sectioned on histology slides, and neurons in hippocampus tissues were stained by Nissl. Neurons damaged by Kainic acid and behavior scores were quantified.
# HSP70 [3] = assay: HSP70 expression in Neuro2A cells by western blot; type: cell-based, mouse; conditions: for HSP70 western signal (absence of compounds = 1.00): 48 hours, then GGTI-298
# Description: Differentiation was induced and cells incubated with geranylgeranyl transferase I inhibitor, GGTI-298. Cells were harvested and lysates were prepared and analyzed by western blot for HSP70 and HSP90. Western signals in the absence of the compounds were normalized as 1.00.
# [4] = tested on: Murine neuro2A neuroblastoma cells; assay: Neurite outgrowth of neuro2A cells inhibited with GGTI-298 (Example 30); type: cell-based, mouse; conditions: for Median Counts of cells with neurite outgrowth: CNS-102 vs CNS-103 experiment (no inhibition 60.3, PBS 18.5); for Relative %: relative to uninhibited count
# Description: Differentiation was induced and cells incubated with geranylgeranyl transferase I inhibitor, GGTI-298. After 24 h digital images were taken and neurite outgrowth was quantified. The comparisons of the neuroprotective effect of these three compounds are shown below.
# The estimated mean log10 counts, from five replicate wells for each treatment group were calculated by PROC GLM in SAS assuming a pooled estimate of variation.
# The estimated mean log10 counts from five replicate wells for each treatment group were calculated by PROC GLM in SAS assuming a pooled estimate of variation.
# Differences in mean log(counts) between treatments for each concentration were calculated using PROC GLM in SAS. The p-value given is for the comparison of the estimated difference to zero, the expected difference value for no treatment effect. The anti-log of the differences represent the estimated ratio of counts (relative effect on inhibition) and are tabulated below along with the lower and upper 95% confidence intervals.
# Neuro2A cells = Neuro2A cells that extended neurites, with GGTI-298 (Example 18); type: cell-based, mouse; conditions: 0.1-1 μM, vehicle 0.0-0.20
# Description: After differentiation was induced, cells that extended neurites were counted.
# HSP70 [5] = assay: HSP70 levels in Neuro 2A cells by ELISA; type: cell-based, mouse; conditions: 10 uM compound for 48 hrs, then GGTI-298 24 hrs
# Description: Mouse neuroblastoma 2a cells were cultured in DMEM with 10% FBS for 24 hrs. […] After 24 hrs cells were harvested and lysates were prepared and analyzed by ELISA for HSP70. Compound ID numbers in table refer to structures in Table 1 and Table 2.
# [6] = tested on: Neuro2A cells treated with A-beta (O); assay: Rescue of amyloid-beta oligomer induced cytotoxicity in Neuro 2A cells (CellTiter-Glo); type: cell-based; conditions: Mus musculus, N2a, compound 1 uM, A-beta (O) together with compound 48 hr, read-out: % viability vs. untreated
# Description: Preparation of amyloid-beta oligomer (A-beta (O)): Synthetic wild type A-beta (1-42) was purchased from American Peptide, and first dissolved with hexafluoroisopropanol (HFIP), then dried in the blowing tissue culture hood overnight to form a film in the eppendorf tube. The A-beta peptide film was first resuspended with DMSO to a concentration of 5 mM, further diluted with DMEM containing N2 supplement (Invitrogen) to achieve a concentration of 100 μM, and then sonicated in room temperature water bath for 10 minutes. The 100 μM peptide solution was then incubated at 4° C. for 24 hr and thoroughly vortexed before applied to cells.
# Mouse neuroblastoma Neuro2A cells were plated in 96-well plates and cultured in DMEM supplemented with 10% FBS for 24 hr. […] At the end of incubation, cells were harvested and subjected to viability assay using CellTiter-Glo Luminescent Cell Viability Assay Kit (Promega). The data for each treatment was calculated as average of 4 replicates and normalized to that of A-beta (O) treated only. Compound ID numbers in table refer to structures in Table 1 and Table 2.
# [7] = 10000 nM, CNS-102 vs CNS-103 experiment
structure (smiles),measurement,setting,value
CC(=O)CC/C=C(/C)CC/C=C(\C)CC/C=C(\C)CCC=C(C)C [CNS-103],Mean of cell numbers (Arbitrary units),[1],0.195 Arbitrary units
same,unprenylated/total RAP1 (%),Rap1,96%
same,Mean of Hippocampus CA3 neurons damaged (Arbitrary units),[2]; 12 mg/Kg rat,8.16 Arbitrary units
same,Mean of Hippocampus CA3 neurons damaged (Arbitrary units),[2]; 25 mg/Kg rat,10.64 Arbitrary units
same,HSP70 western signal (absence of compounds = 1.00),HSP70 [3]; 100 nM,1.00
same,HSP70 western signal (absence of compounds = 1.00),HSP70 [3]; 10 μM,0.99
same,induction of HSP70 expression (in words),"HSP70 [3]; Neuro2A cells, western blot",failed to induce expression of HSP70
same,Median Counts of cells with neurite outgrowth,[4]; 10 nM,26.7
same,Relative %,"[4]; 10 nM, CNS-102 vs CNS-103 experiment",44.3%
same,Median Counts of cells with neurite outgrowth,[4]; 100 nM,29.3
same,Relative %,"[4]; 100 nM, CNS-102 vs CNS-103 experiment",48.6%
same,Median Counts of cells with neurite outgrowth,[4]; 1000 nM,28.7
same,Relative %,"[4]; 1000 nM, CNS-102 vs CNS-103 experiment",47.6%
same,Protection %,[4]; [7],−5.3%
same,Median Counts of cells with neurite outgrowth,[4]; 10000 nM,16.3
same,Relative %,[4]; [7],27%
same,maximum protection,"[4]; CNS-102 vs CNS-103 experiment, FIG. 4B",~26%
same,Mean of cell numbers (Arbitrary units),Neuro2A cells,0.20-0.45 Arbitrary units
"CC(C)=CCC/C(C)=C/CC/C(C)=C/COC(=S)NC1CC1 [Compound 9d, Cyclopropyl 2E, 6E-farnesyl thiocarbamate]",HSP70 ELISA signal (absence of compound normalized as 1.00),HSP70 [5],0.95
CCC(=O)CC/C=C(\C)CC/C=C(\C)CCC=C(C)C [Compound 102],viability at 1 µM,[6],140%
CC(C)=CCC/C(C)=C/CC/C(C)=C/CC/C(C)=C/CCC(C)=NO [Compound 103],viability at 1 µM,[6],128%
